The text below walks through data of patent publication US10646580B2, “Oligosaccharide conjugates for targeting bacteria and uses related thereto” (priority 2011, dated 2020).

The test system of the assay is Escherichia coli (ATCC 33456). Description: Ampicillin IC50 in E. coli. Type of assay: cell-based. To be noted: ATCC33456. The procedure: The ability of antibiotics to inhibit the uptake of MDP-1 in Escherichia coli was investigated. Escherichia coli (ATCC 33456) were grown in LB medium at 37° C. under 5% CO2 to an OD600=0.5, as described above. […] Escherichia coli were incubated with ampicillin for 1 hour at 37° C. under 5% CO2, and 60 μL of MDP-1 stock solutions (1 mM in PBS) were added, generating a 20 μM MDP concentration. Escherichia coli were incubated with MDPs in the presence of ampicillin for 1 hour at 37° C. under 5% CO2 in an incubator shaker. At this stage, a small aliquot of the bacterial culture was plated to determine the CFUs of bacteria in the MDP solution. Escherichia coli were harvested by centrifuging and the resulting pellets were washed 3 times with 10 mL PBS. The intracellular fluorescence of the bacteria was determined as described in FIG. 3a.

Structures are written as SMILES. In brackets after ≈: the same amount, converted by molar mass.

A word on the IC50: it is the midpoint of a concentration-inhibition curve. Low readings indicate higher potency, high ones lower potency. Regarding `CC1(C)S[C@@H]2[C@H](NC(=O)[C@H](N)c3ccccc3)C(=O)N2[C@H]1C(=O)O` [ampicillin], the IC50 amounted to 3 µg/mL (≈ 8.59 µM).
